From publication PMC4767141, “Discovery of Potent, Orally Bioavailable, Small-Molecule Inhibitors of WNT Signaling from a Cell-Based Pathway Screen” (Journal of Medicinal Chemistry, 2015)

Tests used:
M1 (h) = target: T1, M1 (h) (Homo sapiens, UniProt P11229); test: CEREP binding panel; conditions: antagonist radioligand, read-out: % Inhibition of Control Specific Binding
T1 construct: purchased Millipore KinaseProfiler (kinases); Cerep (receptors and ion channels)

CAMKI = target: T2, CAMKI (Homo sapiens, UniProt Q14012); test: Millipore kinase panel; assay type: biochemical; conditions: read-out: % Control
T2 construct: purchased Millipore KinaseProfiler (kinases); Cerep (receptors and ion channels)

CCR1 (h) = target: T3, CCR1 (h) (Homo sapiens, UniProt P32246); test: CEREP binding panel; conditions: agonist radioligand, read-out: % Inhibition of Control Specific Binding
T3 construct: purchased Millipore KinaseProfiler (kinases); Cerep (receptors and ion channels)
T3 sequence (P32246 whole entry): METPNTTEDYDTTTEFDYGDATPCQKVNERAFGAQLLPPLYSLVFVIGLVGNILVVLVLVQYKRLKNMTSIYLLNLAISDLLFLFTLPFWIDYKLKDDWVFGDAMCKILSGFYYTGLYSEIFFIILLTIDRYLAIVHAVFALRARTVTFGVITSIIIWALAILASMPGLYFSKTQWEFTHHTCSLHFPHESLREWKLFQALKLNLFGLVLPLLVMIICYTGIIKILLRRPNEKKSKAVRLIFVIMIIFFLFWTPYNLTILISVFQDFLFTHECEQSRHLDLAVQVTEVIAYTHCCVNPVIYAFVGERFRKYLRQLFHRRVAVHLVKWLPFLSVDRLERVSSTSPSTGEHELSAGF

CB1 (h) = target: T4, CB1 (h) (Homo sapiens, UniProt P21554); test: CEREP binding panel; conditions: 10 μM, agonist radioligand
T4 construct: purchased Millipore KinaseProfiler (kinases); Cerep (receptors and ion channels)
T4 sequence (P21554 whole entry): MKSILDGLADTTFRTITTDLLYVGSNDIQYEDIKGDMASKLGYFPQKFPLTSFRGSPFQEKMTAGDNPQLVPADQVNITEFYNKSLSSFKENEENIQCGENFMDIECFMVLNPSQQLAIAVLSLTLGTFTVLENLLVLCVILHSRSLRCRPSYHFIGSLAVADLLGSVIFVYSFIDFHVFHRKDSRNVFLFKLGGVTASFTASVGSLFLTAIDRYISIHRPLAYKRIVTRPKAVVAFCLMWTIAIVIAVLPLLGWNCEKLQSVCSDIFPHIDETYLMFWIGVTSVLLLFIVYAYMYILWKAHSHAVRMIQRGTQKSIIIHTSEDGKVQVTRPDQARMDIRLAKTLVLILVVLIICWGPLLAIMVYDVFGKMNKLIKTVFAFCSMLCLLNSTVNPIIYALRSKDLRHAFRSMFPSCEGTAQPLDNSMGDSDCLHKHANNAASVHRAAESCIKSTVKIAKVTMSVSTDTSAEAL

BRSK1 = target: T5, BRSK1 (Homo sapiens, UniProt Q8TDC3); test: Millipore kinase panel; assay type: biochemical; conditions: read-out: % Control
T5 construct: purchased Millipore KinaseProfiler (kinases); Cerep (receptors and ion channels)

PIM-3 = target: T6, PIM-3 (Homo sapiens, UniProt Q86V86); test: Millipore kinase panel; assay type: biochemical; conditions: read-out: % Control
T6 construct: purchased Millipore KinaseProfiler (kinases); Cerep (receptors and ion channels)

SRPK2 = target: T7, SRPK2 (Homo sapiens, UniProt P78362); test: Millipore kinase panel; assay type: biochemical; conditions: read-out: % Control
T7 construct: purchased Millipore KinaseProfiler (kinases); Cerep (receptors and ion channels)
T7 sequence (P78362 whole entry): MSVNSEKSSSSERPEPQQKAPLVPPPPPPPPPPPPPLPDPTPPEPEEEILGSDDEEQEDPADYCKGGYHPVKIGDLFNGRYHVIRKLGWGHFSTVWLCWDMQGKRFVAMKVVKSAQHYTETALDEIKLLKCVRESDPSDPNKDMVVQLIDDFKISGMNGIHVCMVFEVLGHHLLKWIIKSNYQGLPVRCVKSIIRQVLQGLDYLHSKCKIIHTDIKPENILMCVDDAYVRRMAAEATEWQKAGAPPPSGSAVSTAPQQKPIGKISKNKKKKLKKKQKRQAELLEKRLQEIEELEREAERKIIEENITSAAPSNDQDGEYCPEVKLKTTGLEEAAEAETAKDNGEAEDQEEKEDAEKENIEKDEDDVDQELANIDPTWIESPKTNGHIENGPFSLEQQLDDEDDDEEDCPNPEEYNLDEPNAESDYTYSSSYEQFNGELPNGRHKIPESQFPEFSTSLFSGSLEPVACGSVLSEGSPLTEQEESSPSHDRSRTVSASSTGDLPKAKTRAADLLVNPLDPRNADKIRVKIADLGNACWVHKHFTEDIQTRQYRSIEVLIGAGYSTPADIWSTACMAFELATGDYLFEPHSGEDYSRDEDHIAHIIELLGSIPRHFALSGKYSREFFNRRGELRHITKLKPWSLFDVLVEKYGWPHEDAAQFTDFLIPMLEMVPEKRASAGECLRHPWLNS

PLK1 = target: T8, PLK1 (Homo sapiens, UniProt P53350); test: Millipore kinase panel; assay type: biochemical; conditions: read-out: % Control
T8 construct: purchased Millipore KinaseProfiler (kinases); Cerep (receptors and ion channels)

GRK5 = target: T9, GRK5 (Homo sapiens, UniProt P34947); test: Millipore kinase panel; assay type: biochemical; conditions: read-out: % Control
T9 construct: purchased Millipore KinaseProfiler (kinases); Cerep (receptors and ion channels)

PLK3 = target: T10, PLK3 (Homo sapiens, UniProt Q9H4B4); test: Millipore kinase panel; assay type: biochemical; conditions: read-out: % Control
T10 construct: purchased Millipore KinaseProfiler (kinases); Cerep (receptors and ion channels)

RSK4 = target: T11, RSK4 (Homo sapiens, UniProt Q9UK32); test: Millipore kinase panel; assay type: biochemical; conditions: read-out: % Control
T11 construct: purchased Millipore KinaseProfiler (kinases); Cerep (receptors and ion channels)
T11 sequence (Q9UK32 whole entry): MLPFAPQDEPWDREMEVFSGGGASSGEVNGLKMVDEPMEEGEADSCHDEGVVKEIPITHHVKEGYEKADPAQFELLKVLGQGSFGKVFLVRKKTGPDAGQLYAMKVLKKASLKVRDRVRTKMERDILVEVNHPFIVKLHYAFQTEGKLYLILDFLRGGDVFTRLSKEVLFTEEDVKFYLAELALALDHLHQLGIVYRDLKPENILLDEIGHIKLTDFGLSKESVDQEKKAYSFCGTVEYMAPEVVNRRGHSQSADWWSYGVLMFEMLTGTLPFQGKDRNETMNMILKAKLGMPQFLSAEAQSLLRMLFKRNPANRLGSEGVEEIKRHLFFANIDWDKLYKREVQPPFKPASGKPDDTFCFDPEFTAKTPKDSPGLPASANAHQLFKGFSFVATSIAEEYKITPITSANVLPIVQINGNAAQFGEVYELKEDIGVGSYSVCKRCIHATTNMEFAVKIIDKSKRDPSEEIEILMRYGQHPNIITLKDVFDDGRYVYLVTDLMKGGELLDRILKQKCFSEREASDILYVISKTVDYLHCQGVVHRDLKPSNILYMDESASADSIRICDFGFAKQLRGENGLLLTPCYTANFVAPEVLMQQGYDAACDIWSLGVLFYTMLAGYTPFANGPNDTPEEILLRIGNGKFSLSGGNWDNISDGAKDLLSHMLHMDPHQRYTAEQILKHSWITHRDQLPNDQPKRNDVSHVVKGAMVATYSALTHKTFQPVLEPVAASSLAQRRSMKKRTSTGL

EPHA8 = target: T12, EPHA8 (Homo sapiens, UniProt P29322); test: Millipore kinase panel; assay type: biochemical; conditions: read-out: % Control
T12 construct: purchased Millipore KinaseProfiler (kinases); Cerep (receptors and ion channels)

A1 (h) = target: T13, A1 (h) (Homo sapiens, UniProt P30542); test: CEREP binding panel; conditions: antagonist radioligand, read-out: % Inhibition of Control Specific Binding
T13 construct: purchased Millipore KinaseProfiler (kinases); Cerep (receptors and ion channels)

FES = target: T14, FES (Homo sapiens, UniProt P07332); test: Millipore kinase panel; assay type: biochemical; conditions: read-out: % Control
T14 construct: purchased Millipore KinaseProfiler (kinases); Cerep (receptors and ion channels)
T14 sequence (P07332 whole entry): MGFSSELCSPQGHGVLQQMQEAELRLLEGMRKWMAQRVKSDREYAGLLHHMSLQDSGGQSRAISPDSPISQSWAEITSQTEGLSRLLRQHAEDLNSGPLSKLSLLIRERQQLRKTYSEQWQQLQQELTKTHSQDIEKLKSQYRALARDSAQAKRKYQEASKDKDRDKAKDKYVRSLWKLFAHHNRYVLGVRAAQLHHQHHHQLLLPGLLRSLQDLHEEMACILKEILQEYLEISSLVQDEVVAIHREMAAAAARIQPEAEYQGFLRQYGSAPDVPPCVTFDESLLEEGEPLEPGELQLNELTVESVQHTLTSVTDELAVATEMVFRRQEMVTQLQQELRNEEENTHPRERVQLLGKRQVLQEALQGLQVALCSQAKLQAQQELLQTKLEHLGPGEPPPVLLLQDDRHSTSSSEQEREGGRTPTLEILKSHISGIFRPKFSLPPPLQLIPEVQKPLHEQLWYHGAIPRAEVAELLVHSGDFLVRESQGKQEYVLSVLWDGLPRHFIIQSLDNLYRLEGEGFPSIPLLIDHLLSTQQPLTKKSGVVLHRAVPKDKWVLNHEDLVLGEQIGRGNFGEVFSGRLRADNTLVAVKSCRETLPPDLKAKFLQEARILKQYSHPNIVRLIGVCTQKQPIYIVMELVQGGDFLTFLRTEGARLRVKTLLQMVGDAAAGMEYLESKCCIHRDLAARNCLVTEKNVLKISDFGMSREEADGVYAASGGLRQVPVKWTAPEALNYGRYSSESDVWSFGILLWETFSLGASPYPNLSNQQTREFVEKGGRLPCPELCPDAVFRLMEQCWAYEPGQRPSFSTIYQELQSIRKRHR

FGR = target: T15, FGR (Homo sapiens, UniProt P09769); test: Millipore kinase panel; assay type: biochemical; conditions: read-out: % Control
T15 construct: purchased Millipore KinaseProfiler (kinases); Cerep (receptors and ion channels)

JNK3 = target: T16, JNK3 (Homo sapiens, UniProt P53779); test: Millipore kinase panel; assay type: biochemical; conditions: read-out: % Control
T16 construct: purchased Millipore KinaseProfiler (kinases); Cerep (receptors and ion channels)

ITK = target: T17, ITK (Homo sapiens, UniProt Q08881); test: Millipore kinase panel; assay type: biochemical; conditions: read-out: % Control
T17 construct: purchased Millipore KinaseProfiler (kinases); Cerep (receptors and ion channels)
T17 sequence (Q08881 whole entry): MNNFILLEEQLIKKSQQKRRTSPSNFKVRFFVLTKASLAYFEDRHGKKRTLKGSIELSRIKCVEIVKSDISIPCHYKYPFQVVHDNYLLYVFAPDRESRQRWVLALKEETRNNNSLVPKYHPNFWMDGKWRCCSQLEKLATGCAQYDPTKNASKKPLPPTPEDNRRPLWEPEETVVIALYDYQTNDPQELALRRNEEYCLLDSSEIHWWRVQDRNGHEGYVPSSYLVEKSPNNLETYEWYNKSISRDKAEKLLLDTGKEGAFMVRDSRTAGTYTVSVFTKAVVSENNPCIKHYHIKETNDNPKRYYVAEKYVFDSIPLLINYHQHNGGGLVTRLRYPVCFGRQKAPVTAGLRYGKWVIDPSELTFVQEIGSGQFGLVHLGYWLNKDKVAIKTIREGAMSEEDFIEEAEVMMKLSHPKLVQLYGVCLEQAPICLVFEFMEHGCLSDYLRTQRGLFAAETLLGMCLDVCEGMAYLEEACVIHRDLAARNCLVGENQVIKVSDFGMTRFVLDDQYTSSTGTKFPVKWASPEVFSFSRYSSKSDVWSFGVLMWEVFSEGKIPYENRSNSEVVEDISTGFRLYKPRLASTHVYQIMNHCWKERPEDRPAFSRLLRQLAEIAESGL

5-HT1A (h) = target: T18, 5-HT1A (h) (Homo sapiens, UniProt P08908); test: CEREP binding panel; conditions: agonist radioligand, read-out: % Inhibition of Control Specific Binding
T18 construct: purchased Millipore KinaseProfiler (kinases); Cerep (receptors and ion channels)

CDK3/CYCLINE = target: T19, CDK3/CYCLINE (Homo sapiens, UniProt Q00526); test: Millipore kinase panel; assay type: biochemical; conditions: read-out: % Control
T19 construct: purchased Millipore KinaseProfiler (kinases); Cerep (receptors and ion channels)

NEK7 = target: T20, NEK7 (Homo sapiens, UniProt Q8TDX7); test: Millipore kinase panel; assay type: biochemical; conditions: read-out: % Control
T20 construct: purchased Millipore KinaseProfiler (kinases); Cerep (receptors and ion channels)

κ (KOP) = target: T21, κ (KOP) (Rattus norvegicus, UniProt P34975); test: CEREP binding panel; conditions: 10 μM, agonist radioligand
T21 construct: purchased Millipore KinaseProfiler (kinases); Cerep (receptors and ion channels)
T21 sequence (P34975 whole entry): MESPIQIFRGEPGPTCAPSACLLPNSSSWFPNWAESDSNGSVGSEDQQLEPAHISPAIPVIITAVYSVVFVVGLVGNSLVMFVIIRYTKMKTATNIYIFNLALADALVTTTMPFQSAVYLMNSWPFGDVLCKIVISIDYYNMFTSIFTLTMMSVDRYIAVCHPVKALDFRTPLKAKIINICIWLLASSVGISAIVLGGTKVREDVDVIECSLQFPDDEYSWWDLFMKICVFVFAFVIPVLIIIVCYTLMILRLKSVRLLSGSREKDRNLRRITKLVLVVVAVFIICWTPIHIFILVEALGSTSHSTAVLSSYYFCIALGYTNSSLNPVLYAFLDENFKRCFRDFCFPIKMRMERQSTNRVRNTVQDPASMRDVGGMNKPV

dopamine transporter (h) = target: T22, dopamine transporter (h) (Homo sapiens, UniProt Q01959); test: CEREP binding panel; conditions: antagonist radioligand, read-out: % Inhibition of Control Specific Binding
T22 construct: purchased Millipore KinaseProfiler (kinases); Cerep (receptors and ion channels)

PRAK = target: T23, PRAK (Homo sapiens, UniProt Q8IW41); test: Millipore kinase panel; assay type: biochemical; conditions: read-out: % Control
T23 construct: purchased Millipore KinaseProfiler (kinases); Cerep (receptors and ion channels)

NEK6 = target: T24, NEK6 (Homo sapiens, UniProt Q9HC98); test: Millipore kinase panel; assay type: biochemical; conditions: read-out: % Control
T24 construct: purchased Millipore KinaseProfiler (kinases); Cerep (receptors and ion channels)

RIPK2 = target: T25, RIPK2 (Homo sapiens, UniProt O43353); test: Millipore kinase panel; assay type: biochemical; conditions: read-out: % Control
T25 construct: purchased Millipore KinaseProfiler (kinases); Cerep (receptors and ion channels)

IRAK4 = target: T26, IRAK4 (Homo sapiens, UniProt Q9NWZ3); test: Millipore kinase panel; assay type: biochemical; conditions: read-out: % Control
T26 construct: purchased Millipore KinaseProfiler (kinases); Cerep (receptors and ion channels)

EPHB2 = target: T27, EPHB2 (Homo sapiens, UniProt P29323); test: Millipore kinase panel; assay type: biochemical; conditions: read-out: % Control
T27 construct: purchased Millipore KinaseProfiler (kinases); Cerep (receptors and ion channels)

PRKX = target: T28, PRKX (Homo sapiens, UniProt P51817); test: Millipore kinase panel; assay type: biochemical; conditions: read-out: % Control
T28 construct: purchased Millipore KinaseProfiler (kinases); Cerep (receptors and ion channels)

FGFR3 = target: T29, FGFR3 (Homo sapiens, UniProt P22607); test: Millipore kinase panel; assay type: biochemical; conditions: read-out: % Control
T29 construct: purchased Millipore KinaseProfiler (kinases); Cerep (receptors and ion channels)

5-HT6 (h) = target: T30, 5-HT6 (h) (Homo sapiens, UniProt P50406); test: CEREP binding panel; conditions: agonist radioligand, read-out: % Inhibition of Control Specific Binding
T30 construct: purchased Millipore KinaseProfiler (kinases); Cerep (receptors and ion channels)

FER = target: T31, FER (Homo sapiens, UniProt P16591); test: Millipore kinase panel; assay type: biochemical; conditions: read-out: % Control
T31 construct: purchased Millipore KinaseProfiler (kinases); Cerep (receptors and ion channels)

5-HT transporter (h) = target: T32, 5-HT transporter (h) (Homo sapiens, UniProt P31645); test: CEREP binding panel; conditions: antagonist radioligand, read-out: % Inhibition of Control Specific Binding
T32 construct: purchased Millipore KinaseProfiler (kinases); Cerep (receptors and ion channels)

MTOR = target: T33, MTOR (Homo sapiens, UniProt P42345); test: Millipore kinase panel; assay type: biochemical; conditions: read-out: % Control
T33 construct: purchased Millipore KinaseProfiler (kinases); Cerep (receptors and ion channels)

MKK7BETA = target: T34, MKK7BETA (Homo sapiens, UniProt O14733); test: Millipore kinase panel; assay type: biochemical; conditions: read-out: % Control
T34 construct: purchased Millipore KinaseProfiler (kinases); Cerep (receptors and ion channels)

EPHA7 = target: T35, EPHA7 (Homo sapiens, UniProt Q15375); test: Millipore kinase panel; assay type: biochemical; conditions: read-out: % Control
T35 construct: purchased Millipore KinaseProfiler (kinases); Cerep (receptors and ion channels)

ERBB4 = target: T36, ERBB4 (Homo sapiens, UniProt Q15303); test: Millipore kinase panel; assay type: biochemical; conditions: read-out: % Control
T36 construct: purchased Millipore KinaseProfiler (kinases); Cerep (receptors and ion channels)

TAK1 = target: T37, TAK1 (Homo sapiens, UniProt O43318); test: Millipore kinase panel; assay type: biochemical; conditions: read-out: % Control
T37 construct: purchased Millipore KinaseProfiler (kinases); Cerep (receptors and ion channels)

JAK2 = target: T38, JAK2 (Homo sapiens, UniProt O60674); test: Millipore kinase panel; assay type: biochemical; conditions: read-out: % Control
T38 construct: purchased Millipore KinaseProfiler (kinases); Cerep (receptors and ion channels)

PKCMU = target: T39, PKCMU (Homo sapiens, UniProt Q15139); test: Millipore kinase panel; assay type: biochemical; conditions: read-out: % Control
T39 construct: purchased Millipore KinaseProfiler (kinases); Cerep (receptors and ion channels)

CAMKIV = target: T40, CAMKIV (Homo sapiens, UniProt Q16566); test: Millipore kinase panel; assay type: biochemical; conditions: read-out: % Control
T40 construct: purchased Millipore KinaseProfiler (kinases); Cerep (receptors and ion channels)

SGK2 = target: T41, SGK2 (Homo sapiens, UniProt Q9HBY8); test: Millipore kinase panel; assay type: biochemical; conditions: read-out: % Control
T41 construct: purchased Millipore KinaseProfiler (kinases); Cerep (receptors and ion channels)

IKKBETA = target: T42, IKKBETA (Homo sapiens, UniProt O14920); test: Millipore kinase panel; assay type: biochemical; conditions: read-out: % Control
T42 construct: purchased Millipore KinaseProfiler (kinases); Cerep (receptors and ion channels)
T42 sequence (O14920 whole entry): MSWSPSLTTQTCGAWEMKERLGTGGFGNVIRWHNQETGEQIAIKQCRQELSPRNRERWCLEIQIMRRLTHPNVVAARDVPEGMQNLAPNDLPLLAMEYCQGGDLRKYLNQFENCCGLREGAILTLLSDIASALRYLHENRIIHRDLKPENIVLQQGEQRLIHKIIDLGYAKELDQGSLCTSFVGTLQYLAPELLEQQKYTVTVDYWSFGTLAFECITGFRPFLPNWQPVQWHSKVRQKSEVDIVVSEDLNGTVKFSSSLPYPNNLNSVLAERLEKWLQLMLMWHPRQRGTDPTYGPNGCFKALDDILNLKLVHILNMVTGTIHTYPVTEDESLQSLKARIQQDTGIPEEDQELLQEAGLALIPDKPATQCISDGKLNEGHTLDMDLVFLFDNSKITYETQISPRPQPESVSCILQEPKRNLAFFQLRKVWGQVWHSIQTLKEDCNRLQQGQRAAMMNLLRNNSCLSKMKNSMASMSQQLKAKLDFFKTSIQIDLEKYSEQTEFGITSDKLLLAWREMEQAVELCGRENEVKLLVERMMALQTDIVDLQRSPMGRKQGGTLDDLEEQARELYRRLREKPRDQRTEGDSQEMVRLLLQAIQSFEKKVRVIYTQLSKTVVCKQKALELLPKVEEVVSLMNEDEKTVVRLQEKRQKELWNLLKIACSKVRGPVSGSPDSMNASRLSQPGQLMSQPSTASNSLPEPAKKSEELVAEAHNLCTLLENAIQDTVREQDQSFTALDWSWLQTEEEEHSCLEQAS

PKD2 = target: T43, PKD2 (Homo sapiens, UniProt Q9BZL6); test: Millipore kinase panel; assay type: biochemical; conditions: read-out: % Control
T43 construct: purchased Millipore KinaseProfiler (kinases); Cerep (receptors and ion channels)

ASK1 = target: T44, ASK1 (Homo sapiens, UniProt Q99683); test: Millipore kinase panel; assay type: biochemical; conditions: read-out: % Control
T44 construct: purchased Millipore KinaseProfiler (kinases); Cerep (receptors and ion channels)

## Cn1cc(-c2ccc(-c3cncc(Cl)c3N3CCC4(CCNC4=O)CC3)cc2)cn1 [Compound 74, 8-(3-Chloro-5-(4-(1-methyl-1H-pyrazol-4-yl)phenyl)pyridin-4-yl)-2,8-diazaspiro[4.5]decan-1-one]
M1 (h)
  inhibition at 10 µM: 21%
CAMKI
  remaining activity at 1 µM: -12%
CCR1 (h)
  inhibition at 10 µM: -4%
CB1 (h)
  % Inhibition of Control Specific Binding: 2%
BRSK1
  remaining activity at 1 µM: -25%
PIM-3
  remaining activity at 1 µM: 8%
SRPK2
  remaining activity at 1 µM: -10%
PLK1
  remaining activity at 1 µM: -4%
GRK5
  remaining activity at 1 µM: -5%
PLK3
  remaining activity at 1 µM: 0%
RSK4
  remaining activity at 1 µM: -17%
EPHA8
  remaining activity at 1 µM: -7%
A1 (h)
  inhibition at 10 µM: -12%
FES
  remaining activity at 1 µM: -14%
FGR
  remaining activity at 1 µM: 0%
JNK3
  remaining activity at 1 µM: -7%
ITK
  remaining activity at 1 µM: -3%
5-HT1A (h)
  inhibition at 10 µM: 19%
CDK3/CYCLINE
  remaining activity at 1 µM: 1%
NEK7
  remaining activity at 1 µM: 2%
κ (KOP)
  % Inhibition of Control Specific Binding: 72%
Dopamine transporter (h)
  inhibition at 10 µM: 40%
PRAK
  remaining activity at 1 µM: 13%
NEK6
  remaining activity at 1 µM: -10%
RIPK2
  remaining activity at 1 µM: -6%
IRAK4
  remaining activity at 1 µM: -3%
EPHB2
  remaining activity at 1 µM: 7%
PRKX
  remaining activity at 1 µM: 2%
FGFR3
  remaining activity at 1 µM: -4%
5-HT6 (h)
  inhibition at 10 µM: 3%
FER
  remaining activity at 1 µM: 11%
5-HT transporter (h)
  inhibition at 10 µM: 70%
MTOR
  remaining activity at 1 µM: 7%
MKK7BETA
  remaining activity at 1 µM: 68%
EPHA7
  remaining activity at 1 µM: 6%
ERBB4
  remaining activity at 1 µM: 0%
TAK1
  remaining activity at 1 µM: 6%
JAK2
  remaining activity at 1 µM: 11%
PKCMU
  remaining activity at 1 µM: -1%
CAMKIV
  remaining activity at 1 µM: 6%
SGK2
  remaining activity at 1 µM: -17%
IKKBETA
  remaining activity at 1 µM: 2%
PKD2
  remaining activity at 1 µM: 7%
ASK1
  remaining activity at 1 µM: -15%
